# According to patent publication US20260317356A1, “SMALL MOLECULE MODULATORS OF OGG1” (AZKARRA THERAPEUTICS, INC., priority 2023, published 2026):
# Molecular target: hOGG1 (Homo sapiens, UniProt O15527)
# Assay: Biochemical fluorescence assay to measure enzymatic activity of hOGG1 (OGG1/APEX IC50)
# Design: Protein His-hOGG1 (12-323) was prepared; His (N); host or cells: E. coli
# Details: 1 nM OGG1+2 nM APEX+6 nM dsDNA (8-oxo-dG substrate); pH 7.5; RT 40 min; read-out: OGG1/APEX IC50
# Outline: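 Coupled glycosylase/AP-endonuclease read-out: 8-oxo-dG-containing dsDNA (6 nM) cleaved by 1 nM His-hOGG1 (12-323) plus 2 nM APEX1 over 40 min at room temperature, after 20 min enzyme–compound preincubation; buffer 20 mM Tris pH 7.5, 100 mM KCl, 0.1% BSA, 0.01% Tween. IC50 comes from sigmoidal 3-parameter fitting of % inhibition derived from TAMRA signal.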
# hOGG1, sequence (O15527 12-323): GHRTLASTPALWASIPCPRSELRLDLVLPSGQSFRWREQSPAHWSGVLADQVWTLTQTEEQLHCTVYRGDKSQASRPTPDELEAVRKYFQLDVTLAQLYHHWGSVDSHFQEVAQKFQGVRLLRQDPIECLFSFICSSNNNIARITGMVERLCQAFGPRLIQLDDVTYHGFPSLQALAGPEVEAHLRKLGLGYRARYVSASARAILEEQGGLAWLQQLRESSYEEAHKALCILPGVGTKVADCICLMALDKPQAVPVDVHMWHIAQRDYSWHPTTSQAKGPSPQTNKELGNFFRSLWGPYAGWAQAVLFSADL
row,IC50 [nM],SMILES
1,< 100,"COc1ccc(NC(=O)[C@H]2CC[C@@H](N3Cc4c(C)cc(NCCN(C)C)cc4NC3=O)CC2)cc1Cl [Example 100, (1s,4s)-N-(3-chloro-4-methoxyphenyl)-4-(7-(2-(dimethylamino)ethylamino)-5-methyl-2-oxo-1,2-dihydroquinazolin-3(4H)-yl)cyclohexanecarboxamide]"
2,< 100,"COc1cc(NC(=O)[C@H]2CC[C@@H](N3Cc4c(Br)cc(NCCN(C)C)cc4C3=O)CC2)ccc1C [Example 198, (1s,4s)-4-(4-Bromo-6-(2-(dimethylamino)ethylamino)-1-oxoisoindolin-2-yl)-N-(3-methoxy-4-methylphenyl)cyclohexanecarboxamide]"
3,< 100,"COc1cc(NC(=O)[C@H]2CC[C@@H](N3Cc4c(C)cnc(Cl)c4NC3=O)CC2)ccc1C [Example 32, (1s,4s)-4-(8-Chloro-5-methyl-2-oxo-1,2-dihydropyrido[3,4-d]pyrimidin-3(4H)-yl)-N-(3-methoxy-4-methylphenyl)cyclohexanecarboxamide]"
4,< 100,"Cc1cccc2c1CN([C@H]1CC[C@@H](C(=O)Nc3cc4ccccc4[nH]3)CC1)C(=O)N2 [Example 112, (1s,4s)-N-(1H-indol-2-yl)-4-(5-methyl-2-oxo-1,2-dihydroquinazolin-3(4H)-yl)cyclohexanecarboxamide]"
5,100 to 1000,"COc1cc(NC(=O)[C@H]2CC[C@@H](N3Cc4c(C)cc(CO)cc4C3=O)CC2)ccc1C [Example 214, (1s,4s)-4-(6-(Hydroxymethyl)-4-methyl-1-oxoisoindolin-2-yl)-N-(3-methoxy-4-methylphenyl)cyclohexanecarboxamide]"
6,1000 to 10000,"COc1cc(NC(=O)[C@H]2CC[C@@H](N3Cc4c(ccc(Br)c4C)NC3=O)CC2)ccc1C [Example 63, (1s,4s)-4-(6-bromo-5-methyl-2-oxo-1,2-dihydroquinazolin-3(4H)-yl)-N-(3-methoxy-4-methylphenyl)cyclohexanecarboxamide]"
7,100 to 1000,"CCc1ccc(NC(=O)[C@H]2CC[C@@H](N3Cc4c(C)cccc4NC3=O)CC2)cc1C [Example 93, (1s,4s)-N-(4-ethyl-3-methylphenyl)-4-(5-methyl-2-oxo-1,2-dihydroquinazolin-3(4H)-yl)cyclohexanecarboxamide]"
8,< 100,"COc1cc(NC(=O)[C@H]2CC[C@@H](N3Cc4c(C)cc(NCC5CCCN5)cc4C3=O)CC2)ccc1C (some centres unmarked) [Example 194, (1s,4s)-N-(3-methoxy-4-methylphenyl)-4-(4-methyl-1-oxo-6-(pyrrolidin-2-ylmethylamino)isoindolin-2-yl)cyclohexanecarboxamide]"
9,< 100,"COc1cc(NC(=O)[C@H]2CC[C@@H](N3Cc4c(C)cc(NCCN(C)C)cc4NC3=O)CC2)ccc1C [Example 96, (1s,4s)-4-(7-(2-(dimethylamino)ethylamino)-5-methyl-2-oxo-1,2-dihydroquinazolin-3(4H)-yl)-N-(3-methoxy-4-methylphenyl)cyclohexanecarboxamide]"
10,100 to 1000,"COc1cc(NC(=O)[C@H]2CC[C@@H](N3Cc4c(Br)ccnc4C3=O)CC2)ccc1C [Example 168, (1s,4s)-4-(4-Bromo-7-oxo-5H-pyrrolo[3,4-b]pyridin-6 (7H)-yl)-N-(3-methoxy-4-methylphenyl)cyclohexanecarboxamide]"
11,1000 to 10000,"COc1cc(NC(=O)[C@H]2CC[C@@H](N3Cc4c(ccc(OCCN(C)C)c4C)NC3=O)CC2)ccc1C [Example 40, (1s,4s)-4-(6-(2-(Dimethylamino)ethoxy)-5-methyl-2-oxo-1,2-dihydroquinazolin-3(4H)-yl)-N-(3-methoxy-4-methylphenyl)cyclohexanecarboxamide]"
12,< 100,"COc1cc(NC(=O)[C@H]2CC[C@@H](N3Cc4c(C)cc(NCC5(O)CNC5)cc4C3=O)CC2)ccc1C [Example 136, (1s,4s)-4-(6-(((3-hydroxyazetidin-3-yl)methyl)amino)-4-methyl-1-oxoisoindolin-2-yl)-N-(3-methoxy-4-methylphenyl)cyclohexanecarboxamide]"
13,1000 to 10000,"COc1cc(NC(=O)[C@H]2CC[C@H](N3Cc4c(C)cc(C5COC5)cc4NC3=O)CC2)ccc1C [Example 110, (1r,4r)-N-(3-methoxy-4-methylphenyl)-4-(5-methyl-7-(oxetan-3-yl)-2-oxo-1,2-dihydroquinazolin-3(4H)-yl)cyclohexanecarboxamide]"
14,100 to 1000,"COc1cc(NC(=O)N2CCC(N3Cc4ccccc4NC3=O)CC2)ccc1C [Example 64, N-(3-methoxy-4-methylphenyl)-4-(2-oxo-1,2-dihydroquinazolin-3(4H)-yl)piperidine-1-carboxamide]"
15,100 to 1000,"COc1cc(NC(=O)[C@H]2CC[C@@H](N3Cc4c(ccnc4Br)C3=O)CC2)ccc1C [Example 176, (1s,4s)-4-(4-Bromo-1-oxo-1H-pyrrolo[3,4-c]pyridin-2(3H)-yl)-N-(3-methoxy-4-methylphenyl)cyclohexanecarboxamide]"
16,> 10000,"COc1cc(NC(=O)C[C@H]2C[C@H](N3Cc4c(Br)cccc4C3=O)C2)ccc1C [Example 187, 2-((1r,3r)-3-(4-Bromo-1-oxoisoindolin-2-yl)cyclobutyl)-N-(3-methoxy-4-methylphenyl)acetamide]"

row,IC50 [nM],SMILES
1,100 to 1000,"COc1ncc(NC(=O)[C@H]2CC[C@@H](N3Cc4c(C)cccc4C3=O)CC2)cc1Cl [Example 221, (1s,4s)-N-(5-Chloro-6-methoxypyridin-3-yl)-4-(4-methyl-1-oxoisoindolin-2-yl)cyclohexanecarboxamide]"
2,1000 to 10000,"Cc1cccc2c1CN([C@H]1CC[C@@H](C(=O)Nc3ccc4oncc4c3)CC1)C(=O)N2 [Example 114, (1s,4s)-N-(benzo[d]isoxazol-5-yl)-4-(5-methyl-2-oxo-1,2-dihydroquinazolin-3(4H)-yl)cyclohexanecarboxamide]"
3,100 to 1000,"Cc1ccc(NC(=O)[C@H]2CC[C@@H](N3Cc4c(C)cccc4C3=O)CC2)cc1Br [Example 124, (1s,4s)-N-(3-Bromo-4-methylphenyl)-4-(4-methyl-1-oxoisoindolin-2-yl)cyclohexane-1-carboxamide]"
4,1000 to 10000,"COc1cc(NC(=O)[C@@H]2[C@@H]3C[C@@H](N4Cc5c(Br)cccc5C4=O)C[C@@H]32)ccc1C [Example 213, (1R,5S,6s)-3-(4-Bromo-1-oxoisoindolin-2-yl)-N-(3-methoxy-4-methylphenyl)bicyclo[3.1.0]hexane-6-carboxamide]"
5,100 to 1000,"COc1cc(NC(=O)[C@H]2CC[C@@H](N3Cc4c(Cl)cccc4N(C)C3=O)CC2)ccc1C [Example 73, (1s,4s)-4-(5-chloro-1-methyl-2-oxo-1,2-dihydroquinazolin-3(4H)-yl)-N-(3-methoxy-4-methylphenyl)cyclohexanecarboxamide]"
6,1000 to 10000,"C=Cc1ccc2c(c1C)CN([C@H]1CC[C@@H](C(=O)Nc3ccc(C)c(OC)c3)CC1)C(=O)N2 [Example 53, (1s,4s)-N-(3-methoxy-4-methylphenyl)-4-(5-methyl-2-oxo-6-vinyl-1,2-dihydroquinazolin-3(4H)-yl)cyclohexanecarboxamide]"
7,1000 to 10000,"COc1cc(NC(=O)[C@H]2CC[C@@H](N3Cc4c(O)cccc4C3=O)CC2)ccc1C [Example 197, (1s,4s)-4-(4-Hydroxy-1-oxoisoindolin-2-yl)-N-(3-methoxy-4-methylphenyl)cyclohexanecarboxamide]"
8,1000 to 10000,"COc1cc(NC(=O)[C@H]2CC[C@@H](N3Cc4ccccc4C3=O)CC2)ccc1C [Example 148, (1s,4s)-N-(3-Methoxy-4-methylphenyl)-4-(1-oxoisoindolin-2-yl)cyclohexanecarboxamide]"
9,100 to 1000,"CCc1ccc(NC(=O)[C@H]2CC[C@@H](N3Cc4c(C)cccc4NC3=O)CC2)cc1C#N [Example 94, (1s,4s)-N-(3-cyano-4-ethylphenyl)-4-(5-methyl-2-oxo-1,2-dihydroquinazolin-3(4H)-yl)cyclohexanecarboxamide]"
10,> 10000,"COc1cc(NC(=O)[C@H]2CC[C@@H](N3Cc4cc(Br)ccc4C3=O)CC2)ccc1C [Example 170, (1s,4s)-4-(5-Bromo-1-oxoisoindolin-2-yl)-N-(3-methoxy-4-methylphenyl)cyclohexanecarboxamide]"
11,100 to 1000,"COc1cc(NC(=O)[C@H]2CC[C@@H](N3Cc4c(C)cc(C(=O)O)cc4C3=O)CC2)ccc1C [Example 211, 2-((1s,4s)-4-(3-Methoxy-4-methylphenylcarbamoyl)cyclohexyl)-7-methyl-3-oxoisoindoline-5-carboxylic Acid]"
12,100 to 1000,"COc1cc(NC(=O)[C@H]2CC[C@@H](N3Cc4c(Br)cc(N)cc4C3=O)CC2)ccc1C [Example 165, (1s,4s)-4-(6-Amino-4-bromo-1-oxoisoindolin-2-yl)-N-(3-methoxy-4-methylphenyl)cyclohexanecarboxamide]"
13,100 to 1000,"COc1cc(NC(=O)[C@H]2CC[C@@H](N3Cc4c(C)ccc(OCC5(C)COC5)c4NC3=O)CC2)ccc1C [Example 23, (1s,4s)-N-(3-Methoxy-4-methylphenyl)-4-(5-methyl-8-((3-methyloxetan-3-yl)methoxy)-2-oxo-1,2-dihydroquinazolin-3(4H)-yl)cyclohexanecarboxamide]"
14,1000 to 10000,"O=C1c2cccc(Br)c2CN1[C@H]1CC[C@@H](C(=O)Nc2ccc3c(c2)OCO3)CC1 [Example 185, (1s,4s)-N-(Benzo[d][1,3]dioxol-5-yl)-4-(4-bromo-1-oxoisoindolin-2-yl)cyclohexanecarboxamide]"
15,> 10000,"Cc1cccc2c1CN([C@H]1CC[C@@H](C(=O)Nc3nc(C)c(C)s3)CC1)C2=O [Example 240, (1s,4s)-N-(4,5-Dimethylthiazol-2-yl)-4-(4-methyl-1-oxoisoindolin-2-yl)cyclohexanecarboxamide]"
16,100 to 1000,"Cc1ccc(NC(=O)[C@H]2CC[C@@H](N3Cc4c(C)cccc4C3=O)CC2)cc1C#N [Example 254, (1s,4s)-N-(3-Cyano-4-methylphenyl)-4-(4-methyl-1-oxoisoindolin-2-yl)cyclohexanecarboxamide]"
